The results in this text go back to ChEMBL document CHEMBL5678818, “Discovery of potent SOS1 inhibitors that block RAS activation via disruption of the RAS-SOS1 interaction” (Proc Natl Acad Sci U S A, 2019).

Test [1] deals with Epidermal growth factor receptor (Homo sapiens), P00533 [UNDEFINED MUTATION]. As to the kind of experiment: Inhibition of EGFR L747-T751del/Sins mutant (unknown origin) assessed as residual activity at 1000 nM by KINOMEscan analysis relative to control.
In test [2] the target is T1, Phosphatidylinositol 3-kinase C2 domain-containing subunit gamma (Homo sapiens) (UniProt O75747).
T1 sequence (whole entry): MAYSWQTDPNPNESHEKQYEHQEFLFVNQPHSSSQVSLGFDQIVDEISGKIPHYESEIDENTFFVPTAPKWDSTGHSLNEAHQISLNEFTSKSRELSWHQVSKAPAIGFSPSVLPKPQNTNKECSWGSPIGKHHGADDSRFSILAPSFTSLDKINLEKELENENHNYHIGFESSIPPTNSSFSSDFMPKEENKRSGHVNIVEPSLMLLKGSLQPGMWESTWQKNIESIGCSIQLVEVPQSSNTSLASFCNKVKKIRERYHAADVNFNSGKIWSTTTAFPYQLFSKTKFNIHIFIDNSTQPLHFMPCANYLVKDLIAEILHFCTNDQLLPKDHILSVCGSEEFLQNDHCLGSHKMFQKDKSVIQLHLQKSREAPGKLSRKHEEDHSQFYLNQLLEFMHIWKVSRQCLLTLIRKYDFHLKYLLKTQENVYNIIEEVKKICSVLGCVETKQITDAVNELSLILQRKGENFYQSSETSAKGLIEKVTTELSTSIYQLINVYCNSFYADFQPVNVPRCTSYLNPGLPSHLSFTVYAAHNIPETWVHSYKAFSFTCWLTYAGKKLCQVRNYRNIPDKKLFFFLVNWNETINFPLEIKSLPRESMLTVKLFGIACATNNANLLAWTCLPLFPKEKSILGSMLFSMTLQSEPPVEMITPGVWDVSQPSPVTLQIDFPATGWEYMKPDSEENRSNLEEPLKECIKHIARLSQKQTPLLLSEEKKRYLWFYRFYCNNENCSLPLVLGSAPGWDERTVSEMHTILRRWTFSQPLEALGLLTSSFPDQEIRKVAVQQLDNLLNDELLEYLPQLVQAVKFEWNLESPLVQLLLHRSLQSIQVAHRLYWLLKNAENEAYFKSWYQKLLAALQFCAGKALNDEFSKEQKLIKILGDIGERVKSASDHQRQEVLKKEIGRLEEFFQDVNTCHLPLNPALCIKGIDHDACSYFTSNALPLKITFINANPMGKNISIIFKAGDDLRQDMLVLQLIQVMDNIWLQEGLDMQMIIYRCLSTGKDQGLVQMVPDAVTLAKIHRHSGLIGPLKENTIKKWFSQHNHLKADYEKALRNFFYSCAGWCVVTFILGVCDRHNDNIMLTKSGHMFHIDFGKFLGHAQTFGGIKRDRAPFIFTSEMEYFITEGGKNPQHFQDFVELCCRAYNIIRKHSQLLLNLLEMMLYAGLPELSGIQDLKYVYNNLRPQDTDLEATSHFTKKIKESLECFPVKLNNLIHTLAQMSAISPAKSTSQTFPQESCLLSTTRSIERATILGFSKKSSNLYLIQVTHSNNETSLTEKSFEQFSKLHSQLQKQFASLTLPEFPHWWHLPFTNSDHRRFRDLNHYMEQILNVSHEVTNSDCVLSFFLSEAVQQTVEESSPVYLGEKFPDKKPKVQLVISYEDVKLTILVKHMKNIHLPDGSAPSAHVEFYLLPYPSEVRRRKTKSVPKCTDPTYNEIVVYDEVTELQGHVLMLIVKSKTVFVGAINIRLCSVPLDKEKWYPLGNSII
As to the kind of experiment: Inhibition of PIK3C2G (unknown origin) assessed as residual activity at 1000 nM by KINOMEscan analysis relative to control.

Test [3] has as its target T2, Testis-specific serine/threonine-protein kinase 1 (Homo sapiens) (UniProt Q9BXA7).
T2 sequence (whole entry): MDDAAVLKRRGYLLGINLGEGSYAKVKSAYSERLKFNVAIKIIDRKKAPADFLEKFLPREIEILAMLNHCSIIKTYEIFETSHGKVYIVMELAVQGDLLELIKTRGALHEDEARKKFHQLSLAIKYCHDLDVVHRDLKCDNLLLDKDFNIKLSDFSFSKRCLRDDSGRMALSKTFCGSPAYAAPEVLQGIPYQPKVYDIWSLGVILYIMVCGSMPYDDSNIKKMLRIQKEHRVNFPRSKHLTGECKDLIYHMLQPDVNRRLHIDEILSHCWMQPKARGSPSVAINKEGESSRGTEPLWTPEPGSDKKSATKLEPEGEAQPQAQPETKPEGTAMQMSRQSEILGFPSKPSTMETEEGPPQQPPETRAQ
As to the kind of experiment: Inhibition of TSSK1B (unknown origin) assessed as residual activity at 1000 nM by KINOMEscan analysis relative to control.

Test [4] addresses Mitogen-activated protein kinase 1 (Homo sapiens) (UniProt P28482). As to the kind of experiment: Inhibition of ERK2 (unknown origin) assessed as residual activity at 1000 nM by KINOMEscan analysis relative to control.
Test [5] addresses Mitogen-activated protein kinase kinase kinase 14 (Homo sapiens) (UniProt Q99558). As to the kind of experiment: Inhibition of NIK (unknown origin) assessed as residual activity at 1000 nM by KINOMEscan analysis relative to control.
Test [6] concerns Epidermal growth factor receptor (Homo sapiens), P00533 [UNDEFINED MUTATION]. As to the kind of experiment: Inhibition of EGFR S752-I759del mutant (unknown origin) assessed as residual activity at 1000 nM by KINOMEscan analysis relative to control.
The target of test [7] is Ribosomal protein S6 kinase alpha-3 (Homo sapiens) (UniProt P51812). As to the kind of experiment: Inhibition of N-terminal RSK2 kinetic domain 1 (unknown origin) assessed as residual activity at 1000 nM by KINOMEscan analysis relative to control.
Ribosomal protein S6 kinase alpha-3 (Homo sapiens), sequence (P51812 whole entry, the tested form may be a part): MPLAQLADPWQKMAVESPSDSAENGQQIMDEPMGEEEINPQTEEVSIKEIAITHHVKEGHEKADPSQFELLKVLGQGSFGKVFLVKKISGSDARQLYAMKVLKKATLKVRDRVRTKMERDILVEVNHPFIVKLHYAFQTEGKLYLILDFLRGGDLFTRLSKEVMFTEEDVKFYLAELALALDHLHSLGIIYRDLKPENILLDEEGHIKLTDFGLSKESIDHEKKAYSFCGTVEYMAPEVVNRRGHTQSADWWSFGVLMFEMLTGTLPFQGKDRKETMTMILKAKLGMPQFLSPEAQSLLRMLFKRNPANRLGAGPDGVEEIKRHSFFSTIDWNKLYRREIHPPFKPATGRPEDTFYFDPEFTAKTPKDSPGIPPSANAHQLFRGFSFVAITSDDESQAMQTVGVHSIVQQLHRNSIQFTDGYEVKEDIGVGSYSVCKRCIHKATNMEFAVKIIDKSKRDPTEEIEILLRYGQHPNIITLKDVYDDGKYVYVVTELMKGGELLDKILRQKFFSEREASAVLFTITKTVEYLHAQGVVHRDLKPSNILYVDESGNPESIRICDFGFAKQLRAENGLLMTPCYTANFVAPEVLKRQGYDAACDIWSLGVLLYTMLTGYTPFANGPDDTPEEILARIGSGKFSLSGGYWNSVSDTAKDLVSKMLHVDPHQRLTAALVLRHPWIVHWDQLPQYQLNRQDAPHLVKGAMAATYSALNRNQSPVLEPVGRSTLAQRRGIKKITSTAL
In test [8] the target is Protein kinase C theta type (Homo sapiens) (UniProt Q04759). As to the kind of experiment: Inhibition of PRKCQ (unknown origin) assessed as residual activity at 1000 nM by KINOMEscan analysis relative to control.
Protein kinase C theta type (Homo sapiens), sequence (Q04759 whole entry, looked up): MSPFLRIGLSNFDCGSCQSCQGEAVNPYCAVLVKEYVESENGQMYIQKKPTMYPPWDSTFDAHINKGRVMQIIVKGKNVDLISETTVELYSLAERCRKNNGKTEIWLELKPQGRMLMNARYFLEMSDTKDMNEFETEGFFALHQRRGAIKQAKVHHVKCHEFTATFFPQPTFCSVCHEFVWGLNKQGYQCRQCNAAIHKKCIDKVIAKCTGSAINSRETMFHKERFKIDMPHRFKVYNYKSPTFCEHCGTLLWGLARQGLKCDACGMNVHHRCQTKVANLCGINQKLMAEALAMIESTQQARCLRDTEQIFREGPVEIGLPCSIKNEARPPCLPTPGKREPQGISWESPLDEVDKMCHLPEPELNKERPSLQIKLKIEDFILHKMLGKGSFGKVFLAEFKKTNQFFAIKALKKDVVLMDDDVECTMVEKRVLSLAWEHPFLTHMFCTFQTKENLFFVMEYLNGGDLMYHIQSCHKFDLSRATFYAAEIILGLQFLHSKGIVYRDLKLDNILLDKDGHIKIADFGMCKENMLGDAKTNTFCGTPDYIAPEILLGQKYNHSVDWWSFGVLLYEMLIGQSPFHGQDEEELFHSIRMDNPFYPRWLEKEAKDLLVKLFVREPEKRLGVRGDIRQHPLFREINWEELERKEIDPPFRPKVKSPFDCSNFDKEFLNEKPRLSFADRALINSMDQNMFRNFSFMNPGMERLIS

SMILES strings stand for the structures.

Epidermal growth factor receptor (Homo sapiens), P00533 [UNDEFINED MUTATION], sequence (P00533 whole entry, looked up, stated change not applied, the tested form may be a part): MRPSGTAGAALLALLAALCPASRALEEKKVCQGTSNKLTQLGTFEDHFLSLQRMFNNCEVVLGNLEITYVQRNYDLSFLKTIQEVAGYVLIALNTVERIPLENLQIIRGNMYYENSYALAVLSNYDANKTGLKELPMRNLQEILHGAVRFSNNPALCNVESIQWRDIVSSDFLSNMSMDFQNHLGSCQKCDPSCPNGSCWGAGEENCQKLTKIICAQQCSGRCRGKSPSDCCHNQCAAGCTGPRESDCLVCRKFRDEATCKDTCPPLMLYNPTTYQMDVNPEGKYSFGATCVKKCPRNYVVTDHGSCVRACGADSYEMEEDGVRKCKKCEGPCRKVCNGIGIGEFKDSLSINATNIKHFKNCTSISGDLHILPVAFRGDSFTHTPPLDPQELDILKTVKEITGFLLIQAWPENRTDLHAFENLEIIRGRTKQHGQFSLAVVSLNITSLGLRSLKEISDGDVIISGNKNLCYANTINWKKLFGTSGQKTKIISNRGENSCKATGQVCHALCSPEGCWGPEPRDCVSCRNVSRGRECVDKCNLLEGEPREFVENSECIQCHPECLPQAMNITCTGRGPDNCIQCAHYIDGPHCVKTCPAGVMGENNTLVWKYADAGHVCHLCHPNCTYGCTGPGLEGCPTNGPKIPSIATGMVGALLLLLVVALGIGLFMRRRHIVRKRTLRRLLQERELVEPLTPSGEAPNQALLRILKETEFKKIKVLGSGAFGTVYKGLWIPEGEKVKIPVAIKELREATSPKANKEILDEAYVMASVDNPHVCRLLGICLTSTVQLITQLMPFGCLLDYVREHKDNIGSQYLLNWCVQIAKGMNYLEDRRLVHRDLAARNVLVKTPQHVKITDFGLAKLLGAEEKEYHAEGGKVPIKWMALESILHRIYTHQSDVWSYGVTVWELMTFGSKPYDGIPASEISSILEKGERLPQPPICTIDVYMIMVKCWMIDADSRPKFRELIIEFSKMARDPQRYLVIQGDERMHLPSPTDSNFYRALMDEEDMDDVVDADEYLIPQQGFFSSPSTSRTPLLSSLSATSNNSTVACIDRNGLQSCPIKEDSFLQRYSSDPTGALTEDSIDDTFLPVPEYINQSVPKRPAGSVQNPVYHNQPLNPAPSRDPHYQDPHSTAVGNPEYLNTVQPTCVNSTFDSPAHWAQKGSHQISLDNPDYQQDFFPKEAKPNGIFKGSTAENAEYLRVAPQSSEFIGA
Mitogen-activated protein kinase kinase kinase 14 (Homo sapiens), sequence (Q99558 whole entry, looked up): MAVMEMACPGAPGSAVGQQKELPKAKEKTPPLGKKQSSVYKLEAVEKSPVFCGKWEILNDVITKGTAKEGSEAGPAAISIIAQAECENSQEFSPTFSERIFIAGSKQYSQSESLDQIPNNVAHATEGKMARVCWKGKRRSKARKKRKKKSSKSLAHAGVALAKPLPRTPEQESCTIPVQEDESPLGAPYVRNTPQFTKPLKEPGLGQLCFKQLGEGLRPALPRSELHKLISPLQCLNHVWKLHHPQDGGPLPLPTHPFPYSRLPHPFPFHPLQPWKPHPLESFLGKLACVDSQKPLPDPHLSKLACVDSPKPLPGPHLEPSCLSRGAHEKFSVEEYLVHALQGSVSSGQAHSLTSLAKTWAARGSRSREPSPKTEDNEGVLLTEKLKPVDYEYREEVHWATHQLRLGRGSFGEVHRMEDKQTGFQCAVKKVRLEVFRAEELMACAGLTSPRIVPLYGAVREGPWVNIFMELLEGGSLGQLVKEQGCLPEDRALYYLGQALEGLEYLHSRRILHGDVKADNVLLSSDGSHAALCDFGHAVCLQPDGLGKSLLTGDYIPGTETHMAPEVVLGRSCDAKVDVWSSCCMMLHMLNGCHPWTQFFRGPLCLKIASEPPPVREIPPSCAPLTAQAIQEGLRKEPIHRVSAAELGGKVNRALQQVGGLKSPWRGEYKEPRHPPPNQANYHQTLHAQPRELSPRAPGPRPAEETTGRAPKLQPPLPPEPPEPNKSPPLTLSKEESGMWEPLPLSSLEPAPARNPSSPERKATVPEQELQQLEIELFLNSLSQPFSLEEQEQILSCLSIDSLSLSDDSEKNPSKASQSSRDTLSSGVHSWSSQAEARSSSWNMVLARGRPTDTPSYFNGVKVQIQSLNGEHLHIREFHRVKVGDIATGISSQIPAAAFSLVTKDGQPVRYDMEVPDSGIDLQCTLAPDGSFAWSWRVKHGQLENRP
Mitogen-activated protein kinase 1 (Homo sapiens), sequence (P28482 whole entry): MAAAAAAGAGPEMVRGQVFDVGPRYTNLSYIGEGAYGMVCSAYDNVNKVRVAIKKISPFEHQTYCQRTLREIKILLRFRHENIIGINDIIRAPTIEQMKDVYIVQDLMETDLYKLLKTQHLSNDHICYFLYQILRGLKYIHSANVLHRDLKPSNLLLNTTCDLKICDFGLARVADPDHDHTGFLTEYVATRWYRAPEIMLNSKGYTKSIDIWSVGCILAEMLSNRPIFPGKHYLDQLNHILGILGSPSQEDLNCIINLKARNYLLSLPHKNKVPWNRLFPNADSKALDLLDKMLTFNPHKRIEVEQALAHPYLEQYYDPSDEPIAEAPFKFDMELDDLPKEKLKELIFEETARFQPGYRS

Regarding `COc1cc2nc(C)nc(N[C@H](C)c3cccc(-c4cn[nH]c4)c3)c2cc1OC`, the Activity in test [1] worked out at 99%; in test [2], 87%; in test [3], 98%; in test [4], 90%; in test [5], 88%; in test [6] it was 82%. Further, the Activity in test [7] was 60%; in test [8] it was 84%.

`COc1cc2ncnc(N[C@H](C)c3cccc4ccccc34)c2cc1OC`: the Activity in test [1] was determined as 5.8%; in test [2], 35%; in test [3], 100%; in test [4], 96%; in test [5] it was 91%; in test [6] it was 13%. The Activity was 95% in test [7] and 100% in test [8].
